Measurements: patent publication US7495104B2, “Quinoline or quinazoline derivatives inhibiting auto-phosphorylation of fibroblast growth factor receptors” (Kirin Beer Kabushiki Kaisha, priority 2001, dated 2009)

Biological target: Bek (Homo sapiens, UniProt P21802)
Experiment: Inhibitory activity against Bek-autophosphorylation using ELISA method in OCUM-2MD3 cells
Format: cell-based
Conditions: 1 hr with compound, read-out: IC50 (concentration necessary for inhibiting 50% of Bek-phosphorylation)
Outline: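 OCUM-2MD3 human scirrhous gastric cancer cells in 0.1% FCS were exposed to compound for 1 hr at 37° C, then lysed. Phospho-tyrosine proteins were captured with anti-phosphotyrosine antibody, probed with anti-Bek antibody and peroxidase read-out (A450). Positive control (1000 nM) set 0%, untreated 100%; IC50 from multi-level dilutions.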

Sequence of Bek (P21802 431-767 limits assumed): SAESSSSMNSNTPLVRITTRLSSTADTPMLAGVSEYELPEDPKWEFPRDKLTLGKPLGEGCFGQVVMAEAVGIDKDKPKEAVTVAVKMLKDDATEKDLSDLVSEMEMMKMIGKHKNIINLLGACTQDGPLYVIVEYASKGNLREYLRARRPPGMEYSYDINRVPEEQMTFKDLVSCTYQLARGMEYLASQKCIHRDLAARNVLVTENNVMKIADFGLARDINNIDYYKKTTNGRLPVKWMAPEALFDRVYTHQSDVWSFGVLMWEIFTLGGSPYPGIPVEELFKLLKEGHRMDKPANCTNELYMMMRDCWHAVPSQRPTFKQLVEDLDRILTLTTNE

| IC50 | Compound |
| --- | --- |
| < 10 nM | COc1cc2c(Oc3ccc(NC(=O)NCCC(C)(C)C)c(Cl)c3)ccnc2cc1OCC(O)CN1CCOCC1 (stereo not drawn) [Compound 195, 1-{2-Chloro-4-[7-(2-hydroxy-3-morpholin-4-yl-propoxy)-6-methoxy-quinolin-4-yloxy]-phenyl}-3-(3,3-dimethyl-butyl)-urea] |
| 17.3 nM | COc1cc2c(Oc3ccc(NC(=O)NCCC(C)(C)C)c(Cl)c3)ccnc2cc1OCC(O)CN1CCCN(C)CC1 (stereo not drawn) [Compound 196, 1-(2-Chloro-4-{7-[2-hydroxy-3-(4-methyl-[1,4]diazepan-1-yl)-propoxy]-6-methoxy-quinolin-4-yloxy}-phenyl)-3-(3,3-dimethyl-butyl)-urea] |
| < 10 nM | COc1cc2c(Oc3ccc(NC(=O)NCCC(C)(C)C)c(Cl)c3)ccnc2cc1OC[C@@H](O)CN1CCOCC1 [Compound 197, 1-{2-Chloro-4-[7-(2-hydroxy-3-morpholin-4-yl-propoxy)-6-methoxy-quinolin-4-yloxy]-phenyl}-3-(3,3-dimethyl-butyl)-urea] |
| 12.3 nM | CCNCC(O)COc1cc2nccc(Oc3ccc(NC(=O)NCCC(C)(C)C)c(Cl)c3)c2cc1OC (stereo not drawn) [Compound 198, 1-{2-Chloro-4-[7-(3-ethylamino-2-hydroxy-propoxy)-6-methoxy-quinolin-4-yloxy]-phenyl}-3-(3,3-dimethyl-butyl)-urea] |
| < 10 nM | COc1cc2c(Oc3ccc(NC(=O)NCCC(C)(C)C)c(Cl)c3)ccnc2cc1OCC(O)CN(C)C (stereo not drawn) [Compound 199, 1-{2-Chloro-4-[7-(3-dimethylamino-2-hydroxy-propoxy)-6-methoxy-quinolin-4-yloxy]-phenyl}-3-(3,3-dimethyl-butyl)-urea] |
| 21.1 nM | COc1cc2c(Oc3ccc(NC(=O)NCCC(C)(C)C)cc3)ccnc2cc1OCCCN1C[C@@H](C)O[C@@H](C)C1 [Compound 200, 1-(3,3-Dimethyl-butyl)-3-(4-{7-[3-(2,6-dimethyl-morpholin-4-yl)-propoxy]-6-methoxy-quinolin-4-yloxy}-phenyl)-urea] |
| < 10 nM | COc1cc2c(Oc3ccc(NC(=O)NCCC(C)(C)C)c(Cl)c3)ccnc2cc1OC[C@H](O)CN1CCOCC1 [Compound 201, 1-{2-Chloro-4-[7-(2-hydroxy-3-morpholin-4-yl-propoxy)-6-methoxy-quinolin-4-yloxy]-phenyl}-3-(3,3-dimethyl-butyl)-urea] |
| 28.5 nM | COc1cc2c(Oc3ccc(NC(=O)NCCC(C)(C)C)c(Cl)c3)ccnc2cc1OCCC1CCNCC1 [Compound 202, 1-{2-Chloro-4-[6-methoxy-7-(2-piperidin-4-yl-ethoxy)-quinolin-4-yloxy]-phenyl}-3-(3,3-dimethyl-butyl)-urea] |
| 234 nM | COc1cc2c(Oc3ccc(NC(=O)NCCC(C)(C)C)c(F)c3)ccnc2cc1OCCCCl [Compound 204, 1-{4-[7-(3-Chloro-propoxy)-6-methoxy-quinolin-4-yloxy]-2-fluoro-phenyl}-3-(3,3-dimethyl-butyl)-urea] |
| 25.5 nM | COc1cc2c(Oc3ccc(NC(=O)NCCC(C)(C)C)c(Cl)c3)ccnc2cc1OCCCN1CCOCC1 [Compound 205, 1-{2-Chloro-4-[6-methoxy-7-(3-morpholin-4-yl-propoxy)-quinolin-4-yloxy]-phenyl}-3-(3,3-dimethyl-butyl)-urea] |
| 18.5 nM | COc1cc2c(Oc3ccc(NC(=O)NCCC(C)(C)C)c(Cl)c3)ccnc2cc1OCC(O)CN1CCOCC1 (stereo not drawn) [Compound 206, 1-{2-Chloro-4-[7-(2-hydroxy-3-morpholin-4-yl-propoxy)-6-methoxy-quinolin-4-yloxy]-phenyl}-3-(3,3-dimethyl-butyl)-urea] |
| 60 nM | COc1cc2c(Oc3ccc(NC(=O)NCCC(C)(C)C)c(Cl)c3)ccnc2cc1OCCCN1CCC(C)CC1 [Compound 207, 1-(2-Chloro-4-{6-methoxy-7-[3-(4-methyl-piperidin-1-yl)-propoxy]-quinolin-4-yloxy}-phenyl)-3-(3,3-dimethyl-butyl)-urea] |
| 27 nM | COc1cc2c(Oc3ccc(NC(=O)NCCC(C)(C)C)c(Cl)c3)ccnc2cc1OCCCN1CCC[C@H]1CO [Compound 208, 1-(2-Chloro-4-{7-[3-(2-hydroxymethyl-pyrrolidin-1-yl)-propoxy]-6-methoxy-quinolin-4-yloxy}-phenyl)-3-(3,3-dimethyl-butyl)-urea] |
| < 10 nM | COc1cc2c(Oc3ccc(NC(=O)NCCC(C)(C)C)c(F)c3)ccnc2cc1OCC(O)CN1CCOCC1 (stereo not drawn) [Compound 209, 1-(3,3-Dimethyl-butyl)-3-{2-fluoro-4-[7-(2-hydroxy-3-morpholin-4-yl-propoxy)-6-methoxy-quinolin-4-yloxy]-phenyl}-urea] |
| < 10 nM | COc1cc2c(Oc3ccc(NC(=O)NCCC(C)(C)C)c(F)c3)ccnc2cc1OCCCN1CCOCC1 [Compound 210, 1-(3,3-Dimethyl-butyl)-3-{2-fluoro-4-[6-methoxy-7-(3-morpholin-4-yl-propoxy)-quinolin-4-yloxy]-phenyl}-urea] |
| < 10 nM | COc1cc2c(Oc3ccc(NC(=O)NCCC(C)(C)C)c(Cl)c3)ccnc2cc1OCCO [Compound 211, 1-{2-Chloro-4-[7-(2-hydroxy-ethoxy)-6-methoxy-quinolin-4-yloxy]-phenyl}-3-(3,3-dimethyl-butyl)-urea] |

| IC50 | Compound |
| --- | --- |
| 137 nM | COc1cc2nccc(Oc3ccc(Nc4ccc(C(C)(C)C)cc4)cc3)c2cc1OCCN1CCOCC1 [Compound 212, (4-Tert-butyl-phenyl)-{4-[7-methoxy-6-(2-morpholin-4-yl-ethoxy)-quinolin-4-yloxy]-phenyl}-amine] |
| 126 nM | COc1cc2nccc(Oc3ccc(Nc4ccc(C(C)(C)C)cc4)cc3)c2cc1OCC(O)CN1CCOCC1 (stereo not drawn) [Compound 213, 1-{4-[4-(4-Tert-butyl-phenylamino)-phenoxy]-7-methoxy-quinolin-6-yloxy}-3-morpholin-4-yl-propan-2-ol] |
| 26.1 nM | COc1cc2nccc(Oc3ccc(Nc4ccc(C(C)(C)C)cc4)cc3)c2cc1O [Compound 214, 4-[4-(4-Tert-butyl-phenylamino)-phenoxy]-7-methoxy-quinolin-6-ol] |
| 341 nM | COC(=O)COc1cc2nccc(Oc3ccc(NC(=O)NCCC(C)(C)C)cc3)c2cc1OC [Compound 215, Methyl (4-{4-[3-(3,3-dimethyl-butyl)-ureido]-phenoxy}-6-methoxy-quinolin-7-yloxy)-acetate] |
| 174 nM | COc1cc2c(Oc3ccc(Nc4ccc(C(C)(C)C)cc4)cc3)ccnc2cc1OCCCN1CCC(O)CC1 [Compound 216, 1-(3-{4-[4-(4-Tert-butyl-phenylamino)-phenoxy]-6-methoxy-quinolin-7-yloxy}-propyl)-piperidin-4-ol] |
| 40.9 nM | COc1cc2c(Oc3ccc(Nc4ccc(C(C)(C)C)cc4)cc3)ccnc2cc1OCCCN1CCC(CO)CC1 [Compound 217, [1-(3-{4-[4-(4-Tert-butyl-phenylamino)-phenoxy]-6-methoxy-quinolin-7-yloxy}-propyl)-piperidin-4-yl]-methanol] |
| 96 nM | COc1cc2c(Oc3ccc(Nc4ccc(C(C)(C)C)cc4)cc3)ccnc2cc1OCCCN1CCC(CCO)CC1 [Compound 218, 2-[1-(3-{4-[4-(4-Tert-butyl-phenylamino)-phenoxy]-6-methoxy-quinolin-7-yloxy}-propyl)-piperidin-4-yl]-ethanol] |
| < 10 nM | COc1cc2c(Oc3ccc(NC(=O)NCCC(C)(C)C)cc3)ccnc2cc1OCCN1CCC(CCO)CC1 [Compound 219, 1-(3,3-Dimethyl-butyl)-3-[4-(7-{2-[4-(2-hydroxy-ethyl)-piperidin-1-yl]-ethoxy}-6-methoxy-quinolin-4-yloxy)-phenyl]-urea] |
| 12 nM | COc1cc2c(Oc3ccc(NC(=O)NCCC(C)(C)C)cc3)ccnc2cc1OCCCN1CCC(CCO)CC1 [Compound 220, 1-(3,3-Dimethyl-butyl)-3-[4-(7-{3-[4-(2-hydroxy-ethyl)-piperidin-1-yl]-propoxy}-6-methoxy-quinolin-4-yloxy)-phenyl]-urea] |
| 762 nM | COc1cc2c(Oc3ccc(NC(=O)NCCC(C)(C)C)cc3)ccnc2cc1OCC(=O)O [Compound 221, (4-{4-[3-(3,3-Dimethyl-butyl)-ureido]-phenoxy}-6-methoxy-quinolin-7-yloxy)-acetic acid] |
| 24.3 nM | COc1cc2nccc(Oc3ccc(NC(=O)NCCC(C)(C)C)cc3)c2cc1OCCN(C)C [Compound 222, 1-{4-[6-(2-Dimethylamino-ethoxy)-7-methoxy-quinolin-4-yloxy]-phenyl}-3-(3,3-dimethyl-butyl)-urea] |
| 49.8 nM | COc1cc2nccc(Oc3ccc(NC(=O)NCCC(C)(C)C)cc3)c2cc1OCCCN1CCOCC1 [Compound 223, 1-(3,3-Dimethyl-butyl)-3-{4-[7-methoxy-6-(3-morpholin-4-yl-propoxy)-quinolin-4-yloxy]-phenyl}-urea] |
| 70.4 nM | COc1cc2nccc(Oc3ccc(NC(=O)NCCC(C)(C)C)cc3)c2cc1OCCCN(C)C [Compound 224, 1-{4-[6-(3-Dimethylamino-propoxy)-7-methoxy-quinolin-4-yloxy]-phenyl}-3-(3,3-dimethyl-butyl)-urea] |
| 19.9 nM | COc1cc2nccc(Oc3ccc(NC(=O)NCCC(C)(C)C)cc3)c2cc1OCC(O)CN1CCOCC1 (stereo not drawn) [Compound 225, 1-(3,3-Dimethyl-butyl)-3-{4-[6-(2-hydroxy-3-morpholin-4-yl-propoxy)-7-methoxy-quinolin-4-yloxy]-phenyl}-urea] |
| 27.9 nM | COc1cc2nccc(Oc3ccc(NC(=O)NCCC(C)(C)C)cc3)c2cc1OCC(O)CN(C)C (stereo not drawn) [Compound 226, 1-{4-[6-(3-Dimethylamino-2-hydroxy-propoxy)-7-methoxy-quinolin-4-yloxy]-phenyl}-3-(3,3-dimethyl-butyl)-urea] |

| Compound | IC50 |
| --- | --- |
| COc1cc2nccc(Oc3ccc(NC(=O)NCCC(C)(C)C)cc3)c2cc1OCCCCN1CCOCC1 [Compound 227, 1-(3,3-Dimethyl-butyl)-3-{4-[7-methoxy-6-(4-morpholin-4-yl-butoxy)-quinolin-4-yloxy]-phenyl}-urea] | 23.9 nM |
| COc1cc2nccc(Oc3ccc(NC(=O)NCCC(C)(C)C)cc3)c2cc1OCCCCN(C)C [Compound 228, 1-{4-[6-(4-Dimethylamino-butoxy)-7-methoxy-quinolin-4-yloxy]-phenyl}-3-(3,3-dimethyl-butyl)-urea] | 38.5 nM |
